SMILES strings stand for the structures. Values after ≈ are worked out from the molar mass of the structure shown. Active and inactive are the calls of the source. The rule behind the calls is not given here.

Among the targets are Histone deacetylase 9 (Homo sapiens, UniProt Q9UKV0); Histone deacetylase 3 (Homo sapiens, UniProt O15379); Histone deacetylase 2 (Homo sapiens, UniProt Q92769).
Series [1] is described as follows: Permeability of the compound in artificial membrane. Type of series: physicochemical, cell membranes. The settings on record: PAMPA; read-out: permeability.
A short description of series [2]: Solubility of the compound by chemiluminescent nitrogen detection method. Type of series: physicochemical.
In series [3] the target is T1, Histone deacetylase 1 (Homo sapiens, UniProt Q13547).
Description: Inhibition of HDAC1 (unknown origin)
In series [4] the target is T2, Bromodomain-containing protein 4 (Homo sapiens, UniProt O60885). Kind of series: Inhibition of recombinant BRD4 bromodomain 1 (unknown origin) using histone H4 peptide as substrate incubated for 1 hr under dark condition by HTRF assay. (In general: TR-FRET usually uses a lanthanide donor and a delayed reading to cut background.)
Series [5] concerns the target T3, Protein deacetylase HDAC6 (Homo sapiens, UniProt Q9UBN7).
T3 sequence (Q9UBN7 whole entry): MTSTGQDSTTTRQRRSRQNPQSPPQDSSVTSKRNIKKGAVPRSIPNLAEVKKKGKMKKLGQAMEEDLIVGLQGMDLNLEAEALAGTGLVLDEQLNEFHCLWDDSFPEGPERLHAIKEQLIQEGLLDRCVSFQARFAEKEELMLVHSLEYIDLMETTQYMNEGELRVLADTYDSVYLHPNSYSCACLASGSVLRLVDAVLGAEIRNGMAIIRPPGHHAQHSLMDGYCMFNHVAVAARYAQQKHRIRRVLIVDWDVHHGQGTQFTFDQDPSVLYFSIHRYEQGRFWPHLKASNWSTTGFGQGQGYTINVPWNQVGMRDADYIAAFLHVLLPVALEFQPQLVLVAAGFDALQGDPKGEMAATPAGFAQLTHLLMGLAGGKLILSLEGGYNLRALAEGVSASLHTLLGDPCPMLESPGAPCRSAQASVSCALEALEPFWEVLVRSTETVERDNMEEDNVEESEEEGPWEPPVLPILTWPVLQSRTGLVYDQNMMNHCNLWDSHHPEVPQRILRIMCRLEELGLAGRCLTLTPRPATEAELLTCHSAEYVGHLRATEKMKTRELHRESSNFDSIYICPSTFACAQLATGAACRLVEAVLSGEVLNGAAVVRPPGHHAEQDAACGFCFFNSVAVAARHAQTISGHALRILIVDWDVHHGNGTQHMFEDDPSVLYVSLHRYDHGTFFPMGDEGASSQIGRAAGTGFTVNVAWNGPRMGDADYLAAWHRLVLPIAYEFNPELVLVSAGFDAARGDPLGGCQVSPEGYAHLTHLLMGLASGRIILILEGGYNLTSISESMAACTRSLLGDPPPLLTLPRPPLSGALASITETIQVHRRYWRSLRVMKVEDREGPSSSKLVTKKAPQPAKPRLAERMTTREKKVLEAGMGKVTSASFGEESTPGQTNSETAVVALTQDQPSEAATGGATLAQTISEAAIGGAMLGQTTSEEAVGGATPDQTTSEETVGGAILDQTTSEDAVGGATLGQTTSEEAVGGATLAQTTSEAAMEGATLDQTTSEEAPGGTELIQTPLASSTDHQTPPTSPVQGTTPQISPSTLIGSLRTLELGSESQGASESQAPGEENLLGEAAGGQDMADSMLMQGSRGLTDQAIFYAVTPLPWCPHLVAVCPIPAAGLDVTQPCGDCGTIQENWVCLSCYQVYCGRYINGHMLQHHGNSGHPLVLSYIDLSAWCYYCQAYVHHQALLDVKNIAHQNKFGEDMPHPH
Description: Inhibition of HDAC6 (unknown origin)

The next series can be described thus: cells. In kind it is functional. The conditions noted are these: Homo sapiens, 72 h.
The target of series [6] is T4, Bromodomain-containing protein 3 (Homo sapiens, UniProt Q15059). Kind of series: Binding affinity to BRD3 in human HL60 cell nuclear extracts assessed as inhibition of protein binding to N-I-BET functionalised sepharose beads at 10 uM after 1 hr by coomassie staining-based staining-based chemoproteomic profiling. The settings on record: HL-60.
Target sequence in this assay (Q15059 2-726 limits assumed): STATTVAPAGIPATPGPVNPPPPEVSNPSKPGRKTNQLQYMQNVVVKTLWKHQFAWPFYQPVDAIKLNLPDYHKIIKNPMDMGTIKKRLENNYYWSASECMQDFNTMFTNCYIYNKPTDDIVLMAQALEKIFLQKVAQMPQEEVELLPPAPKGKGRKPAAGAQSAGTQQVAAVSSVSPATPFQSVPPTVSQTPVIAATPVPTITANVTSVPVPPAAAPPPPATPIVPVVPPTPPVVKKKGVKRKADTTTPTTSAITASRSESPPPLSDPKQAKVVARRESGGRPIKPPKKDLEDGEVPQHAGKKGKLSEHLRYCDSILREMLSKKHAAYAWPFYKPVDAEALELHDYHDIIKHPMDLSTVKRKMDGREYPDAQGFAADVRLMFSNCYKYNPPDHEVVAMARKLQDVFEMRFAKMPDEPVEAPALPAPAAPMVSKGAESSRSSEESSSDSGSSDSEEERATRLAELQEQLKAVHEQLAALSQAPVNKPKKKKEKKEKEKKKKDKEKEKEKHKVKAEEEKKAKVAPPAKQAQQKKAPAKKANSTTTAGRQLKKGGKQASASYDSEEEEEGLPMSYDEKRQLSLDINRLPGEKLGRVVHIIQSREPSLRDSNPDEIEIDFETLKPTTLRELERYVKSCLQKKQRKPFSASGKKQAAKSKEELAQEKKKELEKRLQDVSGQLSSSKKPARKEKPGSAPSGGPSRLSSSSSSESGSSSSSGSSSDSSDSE
The subject of series [7] is PBMC. Kind of series: Antiinflammatory activity in human PBMC assessed as inhibition of LPS-stimulated IL-6 production incubated for 30 mins prior to LPS-challenge measured after overnight incubation. Type of series: functional, cell-based.
Series [8] has as its target T2, Bromodomain-containing protein 4. The experiment in a line: Binding affinity to BRD4 in human HL60 cell nuclear extracts assessed as inhibition of protein binding to N-I-BET functionalised sepharose beads at 10 uM after 1 hr by coomassie staining-based staining-based chemoproteomic profiling. The settings on record: HL-60.
A further series concerns MV4-11. The experiment in a line: cells. In kind it is functional, cell-based. The settings on record: Homo sapiens, MV4-11, 72 h.
The test system of the next series is HL-60. The experiment in a line: cells. The settings on record: Homo sapiens, HL-60, 72 h. In kind it is functional, cell-based.
The test system of series [9] is PBMC. Kind of series: Antiinflammatory activity in human PBMC assessed as inhibition of LPS-stimulated TNF-alpha production incubated for 30 mins prior to LPS-challenge measured after overnight incubation. Type of series: functional, cell-based.
Series [10] has as its target T5, Bromodomain-containing protein 2 (Homo sapiens, UniProt P25440). The experiment in a line: Binding affinity to BRD2 in human HL60 cell nuclear extracts assessed as inhibition of protein binding to N-I-BET functionalised sepharose beads at 10 uM after 1 hr by coomassie staining-based chemoproteomic profiling. The conditions noted are these: HL-60.
Target sequence in this assay (P25440 whole entry, looked up): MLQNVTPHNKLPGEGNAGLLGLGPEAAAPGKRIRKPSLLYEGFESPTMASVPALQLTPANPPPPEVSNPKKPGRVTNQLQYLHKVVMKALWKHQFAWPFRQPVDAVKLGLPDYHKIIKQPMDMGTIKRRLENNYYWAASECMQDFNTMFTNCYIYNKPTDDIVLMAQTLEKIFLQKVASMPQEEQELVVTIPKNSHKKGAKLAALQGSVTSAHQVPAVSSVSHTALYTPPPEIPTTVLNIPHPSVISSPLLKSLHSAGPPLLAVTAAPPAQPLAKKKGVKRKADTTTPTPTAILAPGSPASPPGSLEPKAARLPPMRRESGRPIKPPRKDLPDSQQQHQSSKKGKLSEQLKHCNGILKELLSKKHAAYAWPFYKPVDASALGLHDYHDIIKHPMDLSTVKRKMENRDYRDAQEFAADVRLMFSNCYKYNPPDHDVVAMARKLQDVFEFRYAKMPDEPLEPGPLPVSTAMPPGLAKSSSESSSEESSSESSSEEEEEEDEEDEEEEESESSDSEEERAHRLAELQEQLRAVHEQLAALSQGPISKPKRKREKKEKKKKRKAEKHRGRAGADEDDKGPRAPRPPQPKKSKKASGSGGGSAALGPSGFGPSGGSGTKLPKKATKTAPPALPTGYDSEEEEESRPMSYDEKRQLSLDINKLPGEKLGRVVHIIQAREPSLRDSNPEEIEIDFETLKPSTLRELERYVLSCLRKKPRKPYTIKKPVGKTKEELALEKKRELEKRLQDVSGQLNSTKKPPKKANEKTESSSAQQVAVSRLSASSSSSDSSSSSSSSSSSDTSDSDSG
A further series has as its target T6, Histone deacetylase 8 (Homo sapiens, UniProt Q9BY41).
T6 sequence (Q9BY41 whole entry): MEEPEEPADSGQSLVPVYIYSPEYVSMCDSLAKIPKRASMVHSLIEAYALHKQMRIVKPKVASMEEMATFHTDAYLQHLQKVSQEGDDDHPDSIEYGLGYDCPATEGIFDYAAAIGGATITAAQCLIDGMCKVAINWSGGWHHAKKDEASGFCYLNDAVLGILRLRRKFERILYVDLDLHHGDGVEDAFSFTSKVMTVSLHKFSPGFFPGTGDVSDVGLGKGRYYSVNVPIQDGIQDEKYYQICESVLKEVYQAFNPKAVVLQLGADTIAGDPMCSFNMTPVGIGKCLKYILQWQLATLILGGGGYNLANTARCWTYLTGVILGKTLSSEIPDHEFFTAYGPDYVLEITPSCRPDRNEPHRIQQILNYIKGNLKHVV

Series [11] has as its target T3, Protein deacetylase HDAC6. The source holds these as a separate data set.
Description: Binding affinity to HDAC6 in human HL60 cell nuclear extracts assessed as inhibition of enzyme binding to N-SAHA functionalised sepharose beads after 1 hr by coomassie staining-based chemoproteomic competition binding assay
For another series, the species on record is Homo sapiens. Kind of series: Inhibition of BET in human 11060 cells assessed as downregulation of c-Myc expression level at IC90 after 6 to 24 hrs by Western blotting analysis. Type of series: cell-based. On the technique in general: Immunoblotting shows a protein as a band on a membrane.
For series [12], the target named is T5, Bromodomain-containing protein 2. The experiment in a line: Binding affinity to BRD2 in human HL60 cell nuclear extracts assessed as inhibition of protein binding to N-I-BET functionalised sepharose beads after 1 hr by coomassie staining-based chemoproteomic competition binding assay. The arrangement: species or system HL-60. The conditions noted are these: read-out: Kd(app).
Target sequence in this assay (P25440 whole entry): as the sequence (P25440 whole entry, looked up) above

For series [13], the target named is T2, Bromodomain-containing protein 4. Kind of series: Inhibition of BRD4 bromodomain 2 (338 to 437) (unknown origin) by surface plasmon resonance analysis.
Series [14] concerns the target T7, Polyamine deacetylase HDAC10 (Homo sapiens, UniProt Q969S8).
T7 sequence (Q969S8 whole entry): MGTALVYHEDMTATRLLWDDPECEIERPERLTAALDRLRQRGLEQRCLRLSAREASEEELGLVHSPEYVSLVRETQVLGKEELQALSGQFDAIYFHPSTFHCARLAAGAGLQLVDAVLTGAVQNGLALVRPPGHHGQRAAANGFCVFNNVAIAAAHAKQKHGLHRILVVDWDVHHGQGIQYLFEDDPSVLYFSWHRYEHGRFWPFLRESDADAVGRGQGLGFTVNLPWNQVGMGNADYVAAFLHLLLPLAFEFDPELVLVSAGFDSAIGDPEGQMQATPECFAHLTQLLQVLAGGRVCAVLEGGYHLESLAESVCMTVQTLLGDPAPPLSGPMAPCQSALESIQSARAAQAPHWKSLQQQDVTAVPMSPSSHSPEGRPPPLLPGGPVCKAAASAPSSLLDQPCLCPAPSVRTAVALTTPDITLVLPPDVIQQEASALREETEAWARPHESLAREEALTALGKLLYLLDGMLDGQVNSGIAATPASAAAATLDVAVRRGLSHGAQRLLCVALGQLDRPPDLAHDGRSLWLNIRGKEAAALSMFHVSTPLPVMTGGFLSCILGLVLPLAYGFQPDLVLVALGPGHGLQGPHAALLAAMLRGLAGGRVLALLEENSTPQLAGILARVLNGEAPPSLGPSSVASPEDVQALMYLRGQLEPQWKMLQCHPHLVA
Description: Binding affinity to HDAC10 in human HL60 cell nuclear extracts assessed as inhibition of enzyme binding to N-SAHA functionalised sepharose beads after 1 hr by coomassie staining-based chemoproteomic competition binding assay

Series [15] deals with T2, Bromodomain-containing protein 4. The experiment in a line: Binding affinity to BRD4 in human HL60 cell nuclear extracts assessed as inhibition of protein binding to N-I-BET functionalised sepharose beads after 1 hr by coomassie staining-based staining-based chemoproteomic competition assay. Further details: species or system HL-60. The conditions noted are these: read-out: Kd(app).

The target in series [16] is T1, Histone deacetylase 1. The source holds these as a separate data set.
Description: Binding affinity to HDAC1 in human HL60 cell nuclear extracts assessed as inhibition of enzyme binding to N-SAHA functionalised sepharose beads after 1 hr by coomassie staining-based chemoproteomic competition binding assay
Series [17] deals with T2, Bromodomain-containing protein 4. The experiment in a line: Inhibition of His6-tagged BRD4 (1 to 477) (unknown origin) by surface plasmon resonance analysis. On the technique in general: In SPR one partner is held on a chip, and binding of the other changes the refractive index at the surface.
Series [18] deals with T4, Bromodomain-containing protein 3. The experiment in a line: Binding affinity to BRD3 in human HL60 cell nuclear extracts assessed as inhibition of protein binding to N-I-BET functionalised sepharose beads after 1 hr by coomassie staining-based chemoproteomic competition binding assay. Further details: species or system HL-60. The conditions noted are these: read-out: Kd(app).

Chain of Histone deacetylase 9 (Q9UKV0 whole entry): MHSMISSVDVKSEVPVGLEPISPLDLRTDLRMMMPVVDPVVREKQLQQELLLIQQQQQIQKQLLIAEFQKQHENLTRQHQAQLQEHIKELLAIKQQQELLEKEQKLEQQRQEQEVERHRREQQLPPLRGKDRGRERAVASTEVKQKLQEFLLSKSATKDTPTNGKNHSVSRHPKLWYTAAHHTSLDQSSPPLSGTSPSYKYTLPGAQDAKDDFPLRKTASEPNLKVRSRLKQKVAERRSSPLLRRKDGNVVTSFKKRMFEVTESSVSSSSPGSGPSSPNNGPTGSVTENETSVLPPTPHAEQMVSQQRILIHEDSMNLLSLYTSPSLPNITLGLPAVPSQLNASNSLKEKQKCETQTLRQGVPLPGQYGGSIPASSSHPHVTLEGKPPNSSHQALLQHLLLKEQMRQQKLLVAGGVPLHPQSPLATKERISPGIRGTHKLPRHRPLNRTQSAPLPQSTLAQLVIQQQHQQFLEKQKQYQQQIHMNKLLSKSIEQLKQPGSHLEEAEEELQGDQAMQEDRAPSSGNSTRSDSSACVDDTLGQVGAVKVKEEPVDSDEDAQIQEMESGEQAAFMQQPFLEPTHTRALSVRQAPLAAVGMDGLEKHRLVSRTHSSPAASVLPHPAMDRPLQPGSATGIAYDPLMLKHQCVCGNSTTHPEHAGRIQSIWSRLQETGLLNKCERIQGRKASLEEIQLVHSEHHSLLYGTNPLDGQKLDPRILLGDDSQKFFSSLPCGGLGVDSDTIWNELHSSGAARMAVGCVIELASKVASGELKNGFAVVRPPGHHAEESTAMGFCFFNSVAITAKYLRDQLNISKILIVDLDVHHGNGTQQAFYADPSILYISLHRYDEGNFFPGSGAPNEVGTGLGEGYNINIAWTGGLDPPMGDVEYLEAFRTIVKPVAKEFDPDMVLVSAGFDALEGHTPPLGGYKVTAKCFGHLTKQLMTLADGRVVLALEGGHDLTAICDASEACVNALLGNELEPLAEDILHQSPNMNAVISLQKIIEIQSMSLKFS
T1 sequence (Q13547 whole entry): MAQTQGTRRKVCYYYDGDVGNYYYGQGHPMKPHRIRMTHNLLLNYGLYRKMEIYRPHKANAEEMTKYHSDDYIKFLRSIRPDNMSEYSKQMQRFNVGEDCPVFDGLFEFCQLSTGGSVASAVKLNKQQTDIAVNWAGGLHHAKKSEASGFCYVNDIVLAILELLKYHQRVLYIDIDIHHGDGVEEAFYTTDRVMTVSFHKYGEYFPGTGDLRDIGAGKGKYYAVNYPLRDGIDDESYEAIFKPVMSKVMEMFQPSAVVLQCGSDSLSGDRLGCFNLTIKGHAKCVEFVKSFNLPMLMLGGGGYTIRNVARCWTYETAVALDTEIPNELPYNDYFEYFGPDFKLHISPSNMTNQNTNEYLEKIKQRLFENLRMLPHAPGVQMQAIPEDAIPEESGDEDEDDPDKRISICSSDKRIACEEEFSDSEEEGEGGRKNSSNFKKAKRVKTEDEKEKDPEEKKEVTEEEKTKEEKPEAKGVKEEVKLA
Chain of Histone deacetylase 3 (O15379 whole entry): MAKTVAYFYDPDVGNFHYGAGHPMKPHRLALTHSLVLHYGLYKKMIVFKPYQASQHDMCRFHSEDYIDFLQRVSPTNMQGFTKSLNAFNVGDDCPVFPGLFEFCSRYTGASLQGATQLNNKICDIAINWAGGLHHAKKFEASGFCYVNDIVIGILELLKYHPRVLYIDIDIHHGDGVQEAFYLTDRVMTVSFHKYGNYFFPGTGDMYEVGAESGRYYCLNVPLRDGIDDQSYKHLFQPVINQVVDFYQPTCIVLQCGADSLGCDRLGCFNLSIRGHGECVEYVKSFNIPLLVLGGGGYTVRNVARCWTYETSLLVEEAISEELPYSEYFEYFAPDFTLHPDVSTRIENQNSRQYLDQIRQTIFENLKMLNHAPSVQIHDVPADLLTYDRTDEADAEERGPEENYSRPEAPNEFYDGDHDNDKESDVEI
Chain of Histone deacetylase 2 (Q92769 whole entry): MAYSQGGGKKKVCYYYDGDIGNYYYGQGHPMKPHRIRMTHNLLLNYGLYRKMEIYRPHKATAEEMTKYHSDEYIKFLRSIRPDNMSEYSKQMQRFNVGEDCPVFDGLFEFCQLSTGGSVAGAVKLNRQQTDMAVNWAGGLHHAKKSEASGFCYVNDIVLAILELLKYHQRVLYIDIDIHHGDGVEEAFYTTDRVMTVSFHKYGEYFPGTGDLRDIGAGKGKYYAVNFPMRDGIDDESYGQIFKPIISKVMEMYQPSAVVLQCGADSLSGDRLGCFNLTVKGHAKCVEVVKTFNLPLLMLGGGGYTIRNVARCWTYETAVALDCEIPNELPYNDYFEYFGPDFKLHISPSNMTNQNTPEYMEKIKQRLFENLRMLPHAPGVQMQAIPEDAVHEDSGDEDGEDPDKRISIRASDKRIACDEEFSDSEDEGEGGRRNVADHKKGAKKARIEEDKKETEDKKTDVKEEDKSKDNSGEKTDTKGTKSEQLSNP
Description for HL-60: Growth inhibition of human HL60 cells assessed as ATP level after 72 hrs by CellTiterGlo assay
Description for Histone deacetylase 2: Binding affinity to HDAC2 in human HL60 cell nuclear extracts assessed as inhibition of enzyme binding to N-SAHA functionalised sepharose beads after 1 hr by coomassie staining-based chemoproteomic competition binding assay
Description for Histone deacetylase 3: Binding affinity to HDAC3 in human HL60 cell nuclear extracts assessed as inhibition of enzyme binding to N-SAHA functionalised sepharose beads after 1 hr by coomassie staining-based chemoproteomic competition binding assay
Description for Histone deacetylase 8: Binding affinity to HDAC8 in human HL60 cell nuclear extracts assessed as inhibition of enzyme binding to N-SAHA functionalised sepharose beads after 1 hr by coomassie staining-based chemoproteomic competition binding assay
Description for Histone deacetylase 9: Inhibition of HDAC9 (unknown origin)
Description for MV4-11: Growth inhibition of human MV4-11 cells assessed as ATP level after 72 hrs by CellTiterGlo assay

The IC50 is the concentration that inhibits the measured activity by half. By solubility is commonly meant the dissolved amount per volume that the medium holds. Regarding `CC(=O)N1c2ccc(NC(=O)CCCCCCC(=O)NO)cc2[C@H](NC(=O)OC(C)C)C[C@@H]1C`, the IC50 came out at 61700 nM at Histone deacetylase 9, 250 nM on Histone deacetylase 1 [3], 290 nM in [4] and 1740 nM in series [5]. Besides, the Papp in series [1] is under 0.3 ×10⁻⁶ cm/s. Besides, the solubility in [2] (read-out: solubility) was over 182 µM.

In the case of `CC(=O)N1c2ccc(NC(=O)CCCCCCC(=O)NO)cc2[C@H](Nc2ccccc2)C[C@@H]1C`, the IC50 stood at 37700 nM on Histone deacetylase 9, 900 nM at Histone deacetylase 1 [3], 100 nM in series [4] and 980 nM in series [5]. Also, the Papp in series [1] came to 3.1 ×10⁻⁶ cm/s. In [2] (read-out: solubility), the solubility was found to be 31 µM (≈ 14.5 µg/mL).

For the molecule `CNCc1ccc(-c2ccc3c(c2)[C@H](NC(=O)OC(C)C)C[C@H](C)N3C(C)=O)cc1`, the IC50 in the series “cells” was 306 nM; with PBMC [7], 5 nM; with MV4-11, 191 nM; at Histone deacetylase 9, over 100000 nM; in the series with HL-60, 381 nM; in the series with PBMC [9] it was 1 nM. The IC50 is over 100000 nM on Histone deacetylase 1 [3] and 280 nM in [4]. For the same molecule, the inhibition result in [6], in series [8] and in series [10] was “Active” each time. In series [1], the Papp was determined as 17.4 ×10⁻⁶ cm/s. The solubility in series [2] (read-out: solubility) was found to be 357 µM (≈ 146 µg/mL).

For `CC(=O)N1c2ccc(-c3ccc(NC(=O)CCCCCCC(=O)NO)cc3)cc2[C@H](NC(=O)OC(C)C)C[C@@H]1C`, the Kd at Histone deacetylase 8 was 328 nM; in series [11], 236 nM; at Histone deacetylase 3 it was 424 nM; in [12], 32 nM; in series [13], 53 nM; in series [14], 207 nM. In addition, the Kd in series [15] worked out at 112 nM; on Histone deacetylase 2, 955 nM; on Histone deacetylase 1 [16], 331 nM; in [17], 57 nM; in [18], 70 nM. Moreover, the IC50 stood at 832 nM in “cells”; 219 nM in the series with PBMC [7]; 334 nM in the series with MV4-11; 34900 nM on Histone deacetylase 9; 764 nM with HL-60; 50 nM in the series with PBMC [9]. Also, the values for the IC50 (on Histone deacetylase 1 [3]; in series [4]; in [5]) were 250 nM, 50 nM and 420 nM, respectively. Also, the inhibition result (in series [6]; in [8]; in the series filed under Homo sapiens; in [10]) was “Active” throughout. In addition, in series [1], the Papp is under 0.3 ×10⁻⁶ cm/s. The solubility in [2] (read-out: solubility) was 154 µM (≈ 85.1 µg/mL).

Take `O=C(CCCCCCC(=O)Nc1ccccc1)NO` [VORINOSTAT]: the Papp in series [1] was 1.5 ×10⁻⁶ cm/s. In series [2], this molecule returned a solubility of 307 µM (≈ 81.1 µg/mL). In [4], the concentration for half-maximal inhibition (IC50) was over 50000 nM.

Regarding `CC(=O)N1c2ccc(NC(=O)CCCCCCC(=O)O)cc2[C@H](NC(=O)OC(C)C)C[C@@H]1C`, the inhibition result in series [6], in series [8] and in [10] was “Active” each time.

As for `CC(=O)N1c2ccc(-c3ccccc3)cc2[C@H](NC(=O)CCCCCCC(=O)NO)C[C@@H]1C`, the inhibition result in series [6], in series [8] and in series [10] was “Active” throughout. The IC50 turned out to be 930 nM at Histone deacetylase 9, 50 nM on Histone deacetylase 1 [3], 360 nM in series [4] and 1290 nM in series [5]. Further, in [1], the Papp is 0.8 ×10⁻⁶ cm/s. In [2] (read-out: solubility), the solubility is over 442 µM.

The record behind these values is ChEMBL document CHEMBL3217474, “The structure based design of dual HDAC/BET inhibitors as novel epigenetic probes” (Medchemcomm, 2014).
